Measured values taken from the CheMixHub ionic liquid set.
Several values for one entry are separate records, joined by “and”; a condition that tells them apart may be missing. Equal values may be shown once.

Assay: xn = mol fraction of the nth substance listed

CCCC[n+]1ccn(C)c1.N[C@@H](CO)C(=O)[O-] + O
100 kPa
Details | electrical conductivity [S/m] | viscosity [mPa·s]
298.15 K, x1 = 0.8281 | 0.00761 | –
298.15 K, x1 = 0.8435 | 0.00711 | –
298.15 K, x1 = 0.8592 | 0.00675 | –
298.15 K, x1 = 0.8757 | 0.00646 | –
298.15 K, x1 = 0.8914 | 0.00609 | –
298.15 K, x1 = 0.8939 | – | 5180
298.15 K, x1 = 0.9163 | – | 5221
303.15 K, x1 = 0.8592 | 0.0107 | –
303.15 K, x1 = 0.8757 | 0.0101 | –
303.15 K, x1 = 0.8914 | 0.00973 | –
303.15 K, x1 = 0.8939 | – | 3031
308.15 K, x1 = 0.8757 | 0.0159 | –
313.15 K, x1 = 0.8939 | – | 1179
313.15 K, x1 = 0.939 | – | 1290
328.15 K, x1 = 0.8435 | 0.078 | –
328.15 K, x1 = 0.8521 | – | 338
328.15 K, x1 = 0.8592 | 0.0738 | –
328.15 K, x1 = 0.8939 | – | 367
328.15 K, x1 = 0.939 | – | 422
333.15 K, x1 = 0.8281 | 0.11 | –
333.15 K, x1 = 0.8592 | 0.1 | –
338.15 K, x1 = 0.8521 | – | 179.9
338.15 K, x1 = 0.8592 | 0.132 | –

CCCn1cc[n+](C)c1.[Br-] + O
Details | electrical conductivity | viscosity [mPa·s]
298 K, 101 kPa, x2 = 0.22 | 0.14 S/m and 0.17 S/m | –
298 K, 101 kPa, x2 = 0.88 | 9.16 S/m | –
298 K, 101 kPa, x2 = 0.93 | 9.89 S/m | –
298 K, 101 kPa, x2 = 0.98 | 6.44 S/m | –
303.15 K, 100 kPa, x1 = 0.4005 | – | 29.2
323.15 K, 100 kPa, x1 = 0.0497 | – | 1.09

CC[n+]1ccn(C)c1.CS(=O)(=O)[O-] + O
100 kPa, frequency 0.003 MHz
Details | electrical conductivity [S/m]
293.15 K, x1 = 0.0165 | 3.25
303.15 K, x1 = 0.1122 | 4.74
313.15 K, x1 = 0.3752 | 2.25
323.15 K, x1 = 0.0489 | 8.42
323.15 K, x1 = 0.2034 | 5.15
323.15 K, x1 = 0.3752 | 2.92
323.15 K, x1 = 0.9339 | 0.827
343.15 K, x1 = 0.0165 | 7.59
343.15 K, x1 = 0.0489 | 11.4
353.15 K, x1 = 0.0165 | 8.61
353.15 K, x1 = 0.0489 | 13
353.15 K, x1 = 0.3752 | 5.32
353.15 K, x1 = 0.9339 | 2.01

Details | viscosity [mPa·s]
293.15 K, 100 kPa, x1 = 0.0674 | 3.026
298.15 K, 102.2 kPa, x1 = 0.75 | 42.2
303.15 K, 100 kPa, x1 = 0.0177 | 1.135
303.15 K, 100 kPa, x1 = 0.9357 | 115
303.15 K, 102.2 kPa, x1 = 0.75 | 34.3
313.15 K, 100 kPa, x1 = 0.0357 | 1.237
313.15 K, 100 kPa, x1 = 0.1089 | 3.068
313.15 K, 102.2 kPa, x1 = 0.75 | 24
323.15 K, 100 kPa, x1 = 0.0177 | 0.756
323.15 K, 100 kPa, x1 = 0.0357 | 1.012
323.15 K, 100 kPa, x1 = 0.4263 | 12.22
328.15 K, 102.2 kPa, x1 = 0.75 | 15.7
353.15 K, 100 kPa, x1 = 0.0674 | 0.879
353.15 K, 100 kPa, x1 = 0.1848 | 2.346

C[C@H](N)C(=O)[O-].C[N+](C)(C)CCO + O
Details | viscosity [mPa·s]
287.97 K, 100 kPa, x1 = 0.2939 | 177
288.1 K, 100 kPa, x1 = 1 | 5100
289.25 K, 100 kPa, x1 = 0.5975 | 970
289.31 K, 100 kPa, x1 = 0.692 | 1467
289.96 K, 100 kPa, x1 = 1 | 3700
290.48 K, 100 kPa, x1 = 0.2939 | 153
290.53 K, 100 kPa, x1 = 0.7994 | 1752
292.92 K, 100 kPa, x1 = 0.097 | 8.7
292.92 K, 100 kPa, x1 = 0.4948 | 490
292.92 K, 100 kPa, x1 = 0.5975 | 710
292.92 K, 100 kPa, x1 = 0.692 | 1030
294.1 K, 100 kPa, x1 = 0.097 | 8.4
294.1 K, 100 kPa, x1 = 0.4948 | 450
294.1 K, 100 kPa, x1 = 0.692 | 930
294.1 K, 100 kPa, x1 = 0.7994 | 1250
295.27 K, 100 kPa, x1 = 0.7994 | 1129
296.45 K, 100 kPa, x1 = 0.4948 | 377
296.45 K, 100 kPa, x1 = 0.7994 | 1016
297.63 K, 100 kPa, x1 = 0.097 | 7.4
298.1 K, 101.3 kPa, x1 = 0.2727 | 33
298.81 K, 100 kPa, x1 = 0.2939 | 90
298.81 K, 100 kPa, x1 = 0.7994 | 840
299.98 K, 100 kPa, x1 = 0.097 | 6.9
299.98 K, 100 kPa, x1 = 0.3748 | 156
300.27 K, 100 kPa, x1 = 1 | 1538
301.16 K, 100 kPa, x1 = 0.692 | 530
302.34 K, 100 kPa, x1 = 0.3748 | 135
303.51 K, 100 kPa, x1 = 0.3748 | 126
303.51 K, 100 kPa, x1 = 0.7994 | 580
304.72 K, 100 kPa, x1 = 1 | 1206
305.86 K, 100 kPa, x1 = 0.3748 | 109
305.86 K, 100 kPa, x1 = 0.4948 | 200
305.86 K, 100 kPa, x1 = 0.8993 | 680
307.04 K, 100 kPa, x1 = 0.3748 | 103
307.04 K, 100 kPa, x1 = 0.5975 | 254
307.04 K, 100 kPa, x1 = 0.8993 | 630
313 K, 101.3 kPa, x1 = 0.1233 | 5.7
323.2 K, 100 kPa, x1 = 1 | 337
333 K, 101.3 kPa, x1 = 0.05881 | 2.27

Cn1cc[n+](CCC(=O)O)c1.[Cl-] + O
viscosity [mPa·s], 100 kPa
Details | x1 = 0.0009214 | x1 = 0.001799 | x1 = 0.003593 | x1 = 0.005399 | x1 = 0.00717 | x1 = 0.008993
293.15 K | 1.006 | 1.022 | 1.056 | 1.092 | 1.128 | 1.167
298.15 K | 0.893 | 0.907 | 0.937 | 0.966 | 0.995 | 1.03
303.15 K | 0.802 | 0.814 | 0.839 | 0.865 | 0.89 | 0.922
308.15 K | 0.726 | 0.735 | 0.759 | 0.783 | 0.807 | 0.831
313.15 K | 0.658 | 0.668 | 0.689 | 0.711 | 0.73 | 0.75

Cn1cc[n+](CCC[n+]2ccn(C)c2)c1.[Br-].[Br-] + O
viscosity [mPa·s], 101 kPa
Details | x1 = 0.0005912 | x1 = 0.0006805 | x1 = 0.0007474 | x1 = 0.0009122 | x1 = 0.00129 | x1 = 0.00144 | x1 = 0.001838 | x1 = 0.002094 | x1 = 0.002204 | x1 = 0.002491
293.15 K | – | – | – | – | – | 1.05 | 1.066 | 1.071 | 1.071 | 1.084
298.15 K | 0.905 | 0.904 | 0.908 | 0.913 | – | 0.935 | 0.948 | 0.955 | 0.955 | 0.962
303.15 K | 0.812 | 0.811 | 0.816 | – | 0.832 | 0.84 | 0.85 | 0.855 | 0.857 | 0.859
308.15 K | 0.734 | 0.734 | 0.739 | 0.74 | 0.754 | – | 0.768 | 0.77 | 0.774 | 0.775
313.15 K | 0.669 | 0.67 | 0.673 | – | – | 0.693 | 0.7 | 0.702 | 0.705 | 0.708
